Assay: 3H D-Arg-DMT-Lys-Phe-NH2 displacement filtration binding assay
Conditions: rat heart homogenate, 3H D-Arg-DMT-Lys-Phe-NH2 6-8 nM; range the pharmacological standard had to stay in (quality control)
Description: 1) Radioligand Displacement Methods and Procedures
1.1 Rat Heart Homogenate Preparation
Aptuit is committed to the highest standards of animal welfare and is subject to legislation under the Italian Legislative Decree no. 26/2014. All studies were conducted in accordance with national legislation and under authorization issued by the Italian Ministry of Health. The rat heart homogenate aliquots were prepared according to the following procedure. Hearts from 20 Sprague Dawley male rats were dissected out and quickly frozen at −80° C. On the day of homogenate preparation, hearts were thawed at 4° C. Groups of 2 hearts in 2 volumes of ice cold 20 mM HEPES, 1 mM EDTA, pH 7.4 buffer were homogenized with the GentleMACS dissociator (Miltenyi Biotec) using the D02 protocol. The final suspension of 20 hearts was divided in 4 aliquots with additional ice cold buffer up to 200 mL for each tube, homogenized with a Polytron and centrifuged at 24,000g for 40 min at 4° C. (T21 Sorvall, Rotor SL0250T, 13,500 rpm). For each tube, the supernatant was discarded, and the pellet resuspended with 100 mL of ice cold buffer, homogenized and centrifuged. This step was repeated twice. The final pellets were collected together in one tube with 70 mL of buffer. […] The protein content, measured with the Bradford (Bio-Rad) method using BSA as standard was 6.15 mg/mL. […]

D-Arg-DMT-Lys-Phe-NH2 [SBT-031]
pIC50, high affinity value of the unlabeled SBT-031 displacement curve: 7.6±0.5

Source: patent US11795196B2, “Mitochondria-targeting peptides” (Stealth BioTherapeutics Corp., priority 2017, dated 2023)
